Values after ≈ are worked out from the molar mass of the structure shown. Values joined by “and” are separate entries in the source; they are usually repeats but may differ in a detail not shown here. Identical values can stand only once.
Columns and labels:
[1] = Volume of distribution at steady state in dog at 3 mg/kg, iv and 5 mg/kg, po; format: ADME, organism-based, Canis lupus familiaris; details: in vivo, read-out: Vdss
[2] = Half life in rat at 3 mg/kg, iv and 10 mg/kg, po; format: ADME, organism-based; details: in vivo
[3] = Aqueous solubility of the compound; details: aqueous medium
[4] = Clearance in dog at 3 mg/kg, iv and 5 mg/kg, po; format: ADME, organism-based, Canis lupus familiaris; details: in vivo
[5] = Volume of distribution at steady state in mouse at 3 mg/kg, iv and 10 mg/kg, po; format: ADME, organism-based; details: in vivo, read-out: Vdss
[6] = Volume of distribution at steady state in rat at 3 mg/kg, iv and 10 mg/kg, po; format: ADME, organism-based; details: in vivo, read-out: Vdss
[7] = Half life in dog at 3 mg/kg, iv and 5 mg/kg, po; format: ADME, organism-based, Canis lupus familiaris; details: in vivo
[8] = Bioavailability in mouse at 3 mg/kg, iv and 10 mg/kg, po; format: ADME, organism-based; details: in vivo
[9] = Bioavailability in rat at 3 mg/kg, iv and 10 mg/kg, po; format: ADME, organism-based; details: in vivo
[10] = Clearance in rat at 3 mg/kg, iv and 10 mg/kg, po; format: ADME, organism-based; details: in vivo
[11] = Half life in mouse at 3 mg/kg, iv and 10 mg/kg, po; format: ADME, organism-based; details: in vivo
[12] = Clearance in mouse at 3 mg/kg, iv and 10 mg/kg, po; format: ADME, organism-based; details: in vivo
[13] = Bioavailability in dog at 3 mg/kg, iv and 5 mg/kg, po; format: ADME, organism-based, Canis lupus familiaris; details: in vivo
[14] = Fraction unbound in plasma
[15] = system: NIH3T3; assay: Antiproliferative activity against mouse 3T3 cells expressing human CSF1R after 72 hrs by Celltiter assay; format: functional
[16] = molecular target: Ribosomal protein S6 kinase alpha-1 (Homo sapiens) (UniProt Q15418); assay: Inhibition of Rsk1 at 0.1 uM
[17] = molecular target: T1, NUAK family SNF1-like kinase 1 (Homo sapiens) (UniProt O60285); assay: Inhibition of ARK5 at 0.1 uM
T1 sequence (whole entry): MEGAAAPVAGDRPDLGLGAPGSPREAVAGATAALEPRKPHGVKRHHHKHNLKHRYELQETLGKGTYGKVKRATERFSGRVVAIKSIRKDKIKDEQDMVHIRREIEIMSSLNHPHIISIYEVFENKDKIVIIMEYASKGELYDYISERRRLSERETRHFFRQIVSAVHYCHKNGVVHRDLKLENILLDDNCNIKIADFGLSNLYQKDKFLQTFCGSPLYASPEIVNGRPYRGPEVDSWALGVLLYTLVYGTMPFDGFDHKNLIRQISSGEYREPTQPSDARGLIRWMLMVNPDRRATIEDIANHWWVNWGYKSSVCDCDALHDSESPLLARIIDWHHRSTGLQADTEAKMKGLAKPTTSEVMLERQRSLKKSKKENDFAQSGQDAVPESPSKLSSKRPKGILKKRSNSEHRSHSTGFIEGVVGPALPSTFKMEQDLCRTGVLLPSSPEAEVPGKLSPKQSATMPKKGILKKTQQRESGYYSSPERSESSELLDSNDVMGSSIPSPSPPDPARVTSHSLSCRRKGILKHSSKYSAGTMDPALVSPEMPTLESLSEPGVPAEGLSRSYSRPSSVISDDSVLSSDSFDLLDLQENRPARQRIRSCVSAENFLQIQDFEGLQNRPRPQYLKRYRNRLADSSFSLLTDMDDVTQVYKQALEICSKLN

[18] = molecular target: Macrophage colony-stimulating factor 1 receptor (Homo sapiens) (UniProt P07333); assay: Inhibition of CSF1R at 1 uM
[19] = molecular target: Ribosomal protein S6 kinase alpha-1 (Homo sapiens) (UniProt Q15418); assay: Inhibition of Rsk1 at 1 uM
[20] = molecular target: Maternal embryonic leucine zipper kinase (Homo sapiens) (UniProt Q14680); assay: Inhibition of MELK at 0.1 uM
[21] = molecular target: Mast/stem cell growth factor receptor Kit (Homo sapiens) (UniProt P10721); assay: Inhibition of c-Kit at 1 uM
[22] = molecular target: Mast/stem cell growth factor receptor Kit (Homo sapiens) (UniProt P10721); assay: Inhibition of c-Kit at 0.1 uM
[23] = molecular target: Maternal embryonic leucine zipper kinase (Homo sapiens) (UniProt Q14680); assay: Inhibition of MELK at 1 uM
[24] = molecular target: Macrophage colony-stimulating factor 1 receptor (Homo sapiens) (UniProt P07333); assay: Inhibition of CSF1R at 0.1 uM
[25] = molecular target: T1, NUAK family SNF1-like kinase 1 (Homo sapiens); assay: Inhibition of ARK5 at 1 uM

Chain of Macrophage colony-stimulating factor 1 receptor (Homo sapiens) (P07333 whole entry): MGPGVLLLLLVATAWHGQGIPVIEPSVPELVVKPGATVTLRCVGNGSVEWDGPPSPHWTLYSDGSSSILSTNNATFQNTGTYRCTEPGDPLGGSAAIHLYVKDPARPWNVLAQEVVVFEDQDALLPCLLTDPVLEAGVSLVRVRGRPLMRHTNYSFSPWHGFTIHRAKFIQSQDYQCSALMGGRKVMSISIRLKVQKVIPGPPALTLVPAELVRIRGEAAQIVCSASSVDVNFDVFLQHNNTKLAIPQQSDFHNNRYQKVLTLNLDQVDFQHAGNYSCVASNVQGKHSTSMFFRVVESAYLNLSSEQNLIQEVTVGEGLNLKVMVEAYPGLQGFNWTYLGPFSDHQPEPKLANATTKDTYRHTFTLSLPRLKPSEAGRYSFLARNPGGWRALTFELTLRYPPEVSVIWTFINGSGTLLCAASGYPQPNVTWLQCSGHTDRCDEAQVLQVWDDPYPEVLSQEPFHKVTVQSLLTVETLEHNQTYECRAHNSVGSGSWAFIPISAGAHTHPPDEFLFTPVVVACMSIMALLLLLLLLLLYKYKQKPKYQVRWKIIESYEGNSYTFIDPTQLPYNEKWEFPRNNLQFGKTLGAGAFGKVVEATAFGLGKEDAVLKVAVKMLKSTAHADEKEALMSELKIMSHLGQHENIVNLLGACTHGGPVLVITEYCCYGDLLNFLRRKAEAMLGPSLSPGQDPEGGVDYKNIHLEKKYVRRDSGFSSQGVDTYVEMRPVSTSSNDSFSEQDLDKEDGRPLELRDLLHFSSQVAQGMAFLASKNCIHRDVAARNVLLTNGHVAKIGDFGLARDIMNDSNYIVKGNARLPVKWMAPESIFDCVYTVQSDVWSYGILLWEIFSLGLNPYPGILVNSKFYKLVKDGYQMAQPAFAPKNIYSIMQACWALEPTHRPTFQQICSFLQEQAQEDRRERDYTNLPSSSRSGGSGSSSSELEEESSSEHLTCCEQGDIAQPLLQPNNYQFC
Chain of Maternal embryonic leucine zipper kinase (Homo sapiens) (Q14680 whole entry, looked up): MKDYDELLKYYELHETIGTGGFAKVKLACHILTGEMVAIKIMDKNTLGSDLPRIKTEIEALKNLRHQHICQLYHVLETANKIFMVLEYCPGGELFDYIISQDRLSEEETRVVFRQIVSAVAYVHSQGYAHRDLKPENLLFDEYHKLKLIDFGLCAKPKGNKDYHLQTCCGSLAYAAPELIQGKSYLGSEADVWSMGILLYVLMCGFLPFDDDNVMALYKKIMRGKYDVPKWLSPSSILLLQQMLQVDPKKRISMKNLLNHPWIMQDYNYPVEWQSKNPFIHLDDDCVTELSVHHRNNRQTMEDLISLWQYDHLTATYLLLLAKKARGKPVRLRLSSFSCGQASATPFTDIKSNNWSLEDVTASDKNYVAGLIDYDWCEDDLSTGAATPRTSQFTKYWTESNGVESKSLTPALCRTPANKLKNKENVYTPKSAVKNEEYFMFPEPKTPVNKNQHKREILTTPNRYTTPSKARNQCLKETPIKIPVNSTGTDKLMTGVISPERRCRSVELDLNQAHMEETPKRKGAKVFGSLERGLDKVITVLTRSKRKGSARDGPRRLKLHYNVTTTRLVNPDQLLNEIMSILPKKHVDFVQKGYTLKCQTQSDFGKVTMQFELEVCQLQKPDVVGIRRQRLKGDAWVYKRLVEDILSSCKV
Chain of Ribosomal protein S6 kinase alpha-1 (Homo sapiens) (Q15418 whole entry): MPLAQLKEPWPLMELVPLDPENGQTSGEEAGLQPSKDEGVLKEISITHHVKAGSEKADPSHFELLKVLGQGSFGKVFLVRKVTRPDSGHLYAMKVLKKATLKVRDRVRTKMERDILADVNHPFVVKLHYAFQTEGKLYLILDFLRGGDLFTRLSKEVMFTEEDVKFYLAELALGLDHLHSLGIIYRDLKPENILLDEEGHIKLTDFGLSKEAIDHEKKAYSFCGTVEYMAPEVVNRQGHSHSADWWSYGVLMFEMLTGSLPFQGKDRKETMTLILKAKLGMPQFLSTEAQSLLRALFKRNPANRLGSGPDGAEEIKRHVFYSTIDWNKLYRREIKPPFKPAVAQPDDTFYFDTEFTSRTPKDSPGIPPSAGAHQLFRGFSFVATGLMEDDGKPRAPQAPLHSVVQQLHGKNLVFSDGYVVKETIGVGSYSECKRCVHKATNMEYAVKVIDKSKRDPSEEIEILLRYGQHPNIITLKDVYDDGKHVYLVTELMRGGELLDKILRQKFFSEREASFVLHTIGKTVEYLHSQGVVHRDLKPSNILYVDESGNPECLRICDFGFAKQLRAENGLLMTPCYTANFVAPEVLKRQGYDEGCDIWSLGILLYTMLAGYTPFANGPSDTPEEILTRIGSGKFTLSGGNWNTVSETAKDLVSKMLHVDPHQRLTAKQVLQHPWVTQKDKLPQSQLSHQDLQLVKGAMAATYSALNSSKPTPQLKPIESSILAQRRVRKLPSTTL
Chain of Mast/stem cell growth factor receptor Kit (Homo sapiens) (P10721 whole entry): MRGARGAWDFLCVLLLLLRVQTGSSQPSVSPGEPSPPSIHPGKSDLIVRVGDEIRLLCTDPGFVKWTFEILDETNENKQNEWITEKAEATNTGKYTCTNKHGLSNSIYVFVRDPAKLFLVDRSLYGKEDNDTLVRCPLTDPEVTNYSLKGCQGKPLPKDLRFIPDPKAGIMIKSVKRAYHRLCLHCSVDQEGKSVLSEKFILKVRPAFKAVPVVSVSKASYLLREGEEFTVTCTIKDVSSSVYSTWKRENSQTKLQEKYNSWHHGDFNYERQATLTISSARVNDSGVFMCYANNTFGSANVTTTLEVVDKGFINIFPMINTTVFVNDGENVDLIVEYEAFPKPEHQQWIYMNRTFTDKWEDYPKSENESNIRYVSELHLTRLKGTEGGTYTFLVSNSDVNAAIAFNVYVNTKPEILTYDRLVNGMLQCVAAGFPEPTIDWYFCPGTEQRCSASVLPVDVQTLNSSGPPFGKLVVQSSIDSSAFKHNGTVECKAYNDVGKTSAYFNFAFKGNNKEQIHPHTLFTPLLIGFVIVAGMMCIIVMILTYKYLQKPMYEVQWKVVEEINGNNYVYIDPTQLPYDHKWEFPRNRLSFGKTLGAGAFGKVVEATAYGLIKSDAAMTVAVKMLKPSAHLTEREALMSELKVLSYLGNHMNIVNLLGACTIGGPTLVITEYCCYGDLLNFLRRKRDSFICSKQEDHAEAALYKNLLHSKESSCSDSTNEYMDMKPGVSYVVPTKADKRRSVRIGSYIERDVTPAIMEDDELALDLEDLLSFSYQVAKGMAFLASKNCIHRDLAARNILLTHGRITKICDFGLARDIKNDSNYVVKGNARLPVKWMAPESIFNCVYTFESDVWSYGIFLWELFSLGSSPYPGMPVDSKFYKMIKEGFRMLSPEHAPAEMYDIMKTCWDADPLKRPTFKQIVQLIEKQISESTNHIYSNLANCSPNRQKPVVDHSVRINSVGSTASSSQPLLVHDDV

| Structure (SMILES) | solubility [3] [µM] | fraction unbound [14] | Activity [15] | also measured |
| --- | --- | --- | --- | --- |
| CCOc1cc2nnc(C(N)=O)c(Nc3ccc(C)cc3F)c2cc1N1CCN(C)CC1 | 27 (≈ 11.8 µg/mL) | 0.016 | – | Vd [1]: 1.8 L/kg; half-life [2]: 9.7 h; clearance [4]: 2 mL/min/kg; Vd [5]: 0.6 L/kg; Vd [6]: 2.8 L/kg; half-life [7]: 12.6 h; bioavailability [8]: 82%; bioavailability [9]: 90%; clearance [10]: 10 mL/min/kg; half-life [11]: 0.9 h; clearance [12]: 12 mL/min/kg; bioavailability [13]: 78% |
| COc1cc2nnc(C(N)=O)c(Nc3cccc(Cl)c3Cl)c2cc1OC | < 1 | – | 0.05 µM and 0.09 µM | – |
| COc1cc2nnc(C(N)=O)c(Nc3ccc(F)cc3F)c2cc1N1CCN(C)CC1 | 290 (≈ 124 µg/mL) | 0.096 | – | – |
| COc1cc2nnc(C(N)=O)c(Nc3cccc(Cl)c3F)c2cc1OC | < 1 | – | 0.08 µM and 0.12 µM | – |
| CCOc1cc2nnc(C(N)=O)c(Nc3cccc(Cl)c3F)c2cc1N1CCN(C)CC1 | 18 (≈ 8.26 µg/mL) | – | – | – |
| COc1cc2nnc(C(N)=O)c(Nc3ccc(F)cc3F)c2cc1OC | 3 (≈ 1.08 µg/mL) | – | 0.16 µM and 0.4 µM | – |
| CCOc1cc2nnc(C(N)=O)c(Nc3cccc(Cl)c3Cl)c2cc1N1CCN(C)CC1 | 10 (≈ 4.75 µg/mL) | < 0.017 | – | – |
| COc1cc2nnc(C(N)=O)c(Nc3cc(C)ccc3F)c2cc1N1CCN(C)CC1 | 22 (≈ 9.34 µg/mL) | – | 0.057 µM | – |
| COc1cc2nnc(C(N)=O)c(Nc3cc(C)ccc3F)c2cc1OC | < 1 | – | 0.2 µM and 0.21 µM | – |
| CCOc1cc2nnc(C(N)=O)c(Nc3cc(C)ccc3F)c2cc1N1CCN(C)CC1 | 120 (≈ 52.6 µg/mL) | 0.11 | 0.04 µM and 0.09 µM | – |
| COc1cc2nnc(C(N)=O)c(Nc3ccc(C)cc3F)c2cc1N1CCN(C)CC1 | – | – | 0.025 µM | – |
| COc1cc2nnc(C(N)=O)c(Nc3ccc(C)cc3F)c2cc1OC | < 1 | – | 0.11 µM and 0.25 µM | – |
| COc1cc2nnc(C(N)=O)c(Nc3cccc(Cl)c3F)c2cc1N1CCN(C)CC1 | 110 (≈ 48.9 µg/mL) | – | 0.021 µM | – |
| CCOc1cc2nnc(C(N)=O)c(Nc3ccc(F)cc3F)c2cc1N1CCN(C)CC1 | – | 0.039 | – | inhibition [16]: 7%; inhibition [17]: 23%; inhibition [18]: 95%; inhibition [19]: 44%; inhibition [20]: 15%; inhibition [21]: 90%; inhibition [22]: 35%; inhibition [23]: 41%; inhibition [24]: 100%; inhibition [25]: 78% |
